One series can be described thus: Water solubility of TCEP. It is filed as physicochemical.
In series [1] the test system is soluble proteins, such as antibodies. Conditions: in the presence of 6M guanidine or 8M urea; cited from earlier work.
The test system of a further series is human hosts. In words: Human safety of the reducing agent.
Series [2] concerns disulfide bonds in hair. In words: Reduction (cleavage) of disulfide bonds in hair protein. It is filed as biochemical, human. The source says: The extent of cleavage of disulfide bonds using thioglycollate depends on the concentration of the reducing agent and on the amount of mechanical stress applied to the hair shaft. In spite of the conditions used in performing a reduction of the disulfide bonds, in prior practice in a laboratory setting, no more than 65-70% of the protein cystine bonds in hair were disrupted. In the actual practice of hair perming, the reduction level is even lower, ranging between 19% and 43%. When using thioglycollate as a reducing agent, the optimal perming condition occurs using ambient temperatures and a 5% (w/v) solution of thioglycollate.
2) The reducing reactions are conducted under conditions of ambient or slightly elevated temperature in a mildly acidic buffer media ranging in a pH from 2.0-5.6 and with a TCEP concentration range of 5-10% w/v. The reaction occurs over a period of about 15 minutes.

Series [3] has as its system hair, especially the cuticle. The series is described as follows: Damage to hair (cuticle). More on the design: species or system human. The conditions noted are these: vs sulfhydryl reducing agents in alkaline pH.
A short description of series [4]: Stability of TCEP (aqueous acidic media, air oxidation, temperature). It is filed as physicochemical.
Series [5] concerns hair, especially the cuticle. Conditions: elevated pH, usually pH 9-12; prior art; cited from earlier work.
The subject of series [6] is disulfide bonds in hair. The conditions noted are these: laboratory setting, prior practice; cited from earlier work.

Broadly, the solubility is the concentration that dissolves in the medium under given conditions. `Cl.O=C(O)CCP(CCC(=O)O)CCC(=O)O` [TCEP, Tris-(2-carboxy-ethyl) phosphine hydrochloride]: the solubility in “Water solubility of TCEP” was around 310 mg/mL. Also, in series [1], the “function as reducing agent on soluble proteins” value was “function well”. For the same compound, the “toxicity to human hosts / safety profile” value with human hosts is recorded as “not toxic to human hosts”. In addition, in the series with disulfide bonds in hair [2], the “reactivity toward other functional groups found in hair” value is recorded as “essentially non-reactive”; the “reduction of some of the most stable disulfide bonds in hair” value is “Selective and complete reduction”. The “effectiveness in reducing disulfide bonds vs dithiothreitol, mercaptoethanol, or thioglycollic acid” value with disulfide bonds in hair [2] (acidic pH) is on record as “more effective than traditional sulfhydryl reducing agents”. Also, the “period over which the reducing reaction occurs” value in the series on disulfide bonds in hair [2] (pH 2.0-5.6, TCEP 5-10% w/v, ambient or slightly elevated temperature) is “about 15 minutes”. Further, in series [3], the “damage to hair, especially the cuticle” value is given as “lower instance of damaged hair”. Further, the “resistance to air oxidation” value in series [4] (air) was “substantially resistant to air oxidation”. In series [4] (aqueous acidic media), the “stability in aqueous acidic media” value is “stable in aqueous acidic media”. In series [4] (fluctuations in temperature), the “stability when exposed to fluctuations in temperature” value was “very stable”.
In the case of `O=C(O)CS` [thioglycollate, thioglycollic acid], the cuticle damage entry in series [5] was “severe cuticle damage”. Besides, the “protein cystine bonds in hair disrupted (extent of reduction)” value in the series on disulfide bonds in hair [6] is listed as 65-70%.
